Test results from patent publication US4616003A, “N^6 -dihydroxypropyladenosines” (Warner-Lambert Company, priority 1985, dated 1986).
Read-outs that look alike come from different tables or passages of the source.

How the values were obtained:
adenosine A1 receptor = target: T1, adenosine A1 receptor (Rattus norvegicus, UniProt P25099); experiment: Adenosine A1 receptor binding (RBA-1), displacement of [3H]-CHA
T1 construct: Whole brain minus cerebellum and brainstem from male Long Evans rats (150-200 g) was homogenized; from tissue; host or cells: rat whole brain minus cerebellum and brainstem, male Long Evans
T1 sequence (P25099 1-326): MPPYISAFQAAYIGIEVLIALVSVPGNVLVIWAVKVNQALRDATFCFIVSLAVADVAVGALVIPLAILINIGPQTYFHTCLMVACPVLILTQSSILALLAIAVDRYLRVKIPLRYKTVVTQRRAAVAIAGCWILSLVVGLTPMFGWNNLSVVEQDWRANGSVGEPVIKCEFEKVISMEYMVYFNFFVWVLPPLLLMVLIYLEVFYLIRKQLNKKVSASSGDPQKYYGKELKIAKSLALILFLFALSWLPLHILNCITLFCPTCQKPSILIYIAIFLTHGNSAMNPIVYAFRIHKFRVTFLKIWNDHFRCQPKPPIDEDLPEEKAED
Procedure: Whole brain minus cerebellum and brainstem from male Long Evans rats (150-200 g) was homogenized in 30 volumes of ice-cold 0.05M Tris-HCl buffer pH 7.7 using a Brinkman Polytron PT-10, (setting number 6 for 20 seconds) and centrifuged for ten minutes at 20,000×g (Sorvall RC-2), 4° C. The supernatant was discarded, and the pellet was resuspended and centrifuged as before. The pellet was resuspended in 20 ml Tris-HCl buffer containing two International Units/ml of adenosine deaminase (Sigma type III from calf intestinal mucosa), incubated at 37° C. for 30 minutes, then subsequently at 0° C. for ten minutes. The homogenate was again centrifuged, and the final pellet was resuspended in ice-cold 0.05M Tris-HCl buffer pH 7.7 to a concentration of 20 mg/ml original wet tissue weight and used immediately.
Tissue homogenate (10 mg/ml) was incubated in 0.05M Tris-HCl buffer pH 7.7 containing 1.0 nM [^3 H]-N^6 -cyclohexyladenosine [^3 H]-CHA) with or without test agents in triplicate for one hour at 25° C. Incubation volume was 2 ml. Unbound [^3 H]-CHA was separated by rapid filtration under reduced pressure through Whatman glass fiber (GF/B) filters. The filters were rinsed three times with 5 ml of ice cold 0.05M Tris-HCl buffer pH 7.7. The radio-labeled ligand retained on the filter was measured by liquid scintillation spectrophotometry after shaking the filters for one hour or longer on a mechanical shaker in 10 ml of Beckman Ready-Solv HP scintillation cocktail.
Nonspecific binding was defined as the binding which occurred in the presence of 1 mM theophylline. […] The Scatchard plot was calculated by linear regression of the line obtained by plotting the amount of radioligand bound (pmoles/gram of tissue) versus [formula] Since the amount of radioligand bound was a small fraction of the total amount added, free radioligand was defined as the concentration (nM) of radioligand added to the incubation mixture. The Hill coefficient was calculated by linear regression of the line obtained by plotting the log of the bound radioligand vs the log of the [formula] The maximal number of binding sites (Bmax) was calculated from the Scatchard plot.

Swiss-Webster male mice = experiment: Mouse Activity and Screen Test (MAST): screen test failure; assay type: in vivo; conditions: 1 hour prior to testing
Procedure: Nine unfasted Swiss-Webster male mice weighing 20-30 g are equally divided into three groups for each drug dose to be tested. That is, data for each dose level was generated by three separate groups of three mice each. A minimum of three dose levels (10, 30, and 100 mg/kg) are tested for each drug. Treatments are administered intraperitoneally one hour prior to testing. All dosages are calculated as parent compound and given in volumes of 10 ml/kg. Compounds are dissolved or suspended in 0.2% Methocel. Control animals are injected with Methocel. Testing: A two part testing procedure is started one hour postinjection. First, the screen test (ST) is performed (see Pharmac. Biochem. Behav. 6, 351-353, 1977). Briefly this test consists of placing mice on individual wire screens which are then rotated 180 degrees at the start of a 60 second observation period. The number of mice falling off the inverted screen is recorded. Data: The data obtained from the screen test are expressed as percent of mice falling off the screen. Data derived from locomotor activity of drug treated mice are compared to the activity of vehicle treated animals and are expressed as percent inhibition of spontaneous locomotion. All percentages reported for inhibition of locomotion (LI) are based upon data accumulated for one hour. Both phases of testing are graded: A=60-100%; C=31-59%; and N=0-30%. An overall dose rating is obtained by the following criteria: […]

male Swiss-Webster mice = experiment: Antiwrithing (AW) test, acetic acid; assay type: in vivo; conditions: Mus musculus, sc; subcutaneous, 20 minutes before acetic acid i.p.; read-out: ED50, suppression of writhing by 50% relative to vehicle controls
Procedure: The antiwrithing (AW) test provides preliminary assessment of compounds with potential analgesic activity. The test is performed in male Swiss-Webster mice. Compounds are administered subcutaneously in aqueous 0.2% methylcellulose or other appropriate vehicles in volumes of 10 ml/kg. Dosages represent active moiety.
Acetic acid (0.6%, 10 ml/kg) is injected intraperitoneally 20 minutes after administration of the adenosine agonist. Writhing movements are counted for five minutes starting seven minutes after the acetic acid injection. Writhing is defined as abdominal constriction and stretching of the body and hind legs with concave arching of the back. Data are expressed as ED50 values, where the ED50 is the dose necessary to suppress writhing by 50% relative to vehicle controls. ED50 values are calculated by nonlinear regression analysis.

[1] = 1.0 nM [3H]-CHA, rat whole brain minus cerebellum and brainstem, read-out: RBA-1 (IC50, adenosine A1 receptor affinity)

SMILES | IC50 (adenosine A1 receptor; [1]) | Screen Test Failure (Swiss-Webster male mice; 0.1 mg/kg i.p.) | Screen Test Failure (Swiss-Webster male mice; 0.3 mg/kg i.p.) | Screen Test Failure (Swiss-Webster male mice; 1.0 mg/kg i.p.) | Screen Test Failure (Swiss-Webster male mice; 3.0 mg/kg i.p.) | Screen Test Failure (Swiss-Webster male mice; 10 mg/kg i.p.) | Screen Test Failure (Swiss-Webster male mice; 30 mg/kg i.p.) | Screen Test Failure (Swiss-Webster male mice; 100 mg/kg i.p.) | ED50 (male Swiss-Webster mice) | IC50 (adenosine A1 receptor) | Screen Test Failure (Swiss-Webster male mice; 0.03 mg/kg i.p.)
OCC(O)CNc1ncnc2c1ncn2[C@@H]1O[C@H](CO)[C@@H](O)[C@@H]1O (stereo partly drawn) [Example 1, (R,S)-N^6 [2,3-Dihydroxypropyl]adenosine] | 9 nM | 8% | 100% | 100% | 100% | 100% | 100% | 100% | 0.07 mg/kg |  | 
OC[C@@H](O)CNc1ncnc2c1ncn2[C@@H]1O[C@H](CO)[C@@H](O)[C@H]1O [Example 3] |  | 0% | 0% | 88% | 100% | 100% | 100% |  |  | 46 nM | 0%
CC1(C)OCC(CNc2ncnc3c2ncn3[C@@H]2O[C@H](CO)[C@@H](O)[C@H]2O)O1 (stereo partly drawn) [Example 4, (R,S)-N^6-[2,3Dihydroxypropylisopropylidene]adenosine] | 430 nM |  | 0% | 0% | 0% | 66% | 99% | 99% |  |  | 
CC1(C)OC[C@@H](CNc2ncnc3c2ncn3[C@@H]2O[C@H](CO)[C@@H](O)[C@H]2O)O1 [Example 5, (R)-N^6-[2,3-Dihydroxypropylisopropylidene]-adenosine] | 440 nM |  | 0% | 11% | 11% | 77% | 100% |  |  |  | 
Nc1nc(NCC(O)CO)c2ncn([C@@H]3O[C@H](CO)[C@@H](O)[C@H]3O)c2n1 (stereo partly shown) [Example 8] | 34 nM |  | 0% | 88% | 99% | 99% | 99% | 99% |  |  | 
